Reference: US8399480B2, “Hydroxymethyl pyrrolidines as beta 3 adrenergic receptor agonists” (Merck Sharp & Dohme Corp., priority 2008, dated 2013)
pEC50: −log10 of the molar value.

These compounds were tested against T1, human β3 adrenergic receptor (Homo sapiens, UniProt P13945) (assay: Functional assay: cAMP production (LANCE TR-FRET) in CHO cells stably transfected with cloned β3 adrenergic receptor). Settings: Table 5; read-out: Human β3 Functional.
T1 construct: expressed in transfected cells; host or cells: Chinese hamster ovary (CHO) cells, stably transfected
T1 sequence (P13945 whole entry): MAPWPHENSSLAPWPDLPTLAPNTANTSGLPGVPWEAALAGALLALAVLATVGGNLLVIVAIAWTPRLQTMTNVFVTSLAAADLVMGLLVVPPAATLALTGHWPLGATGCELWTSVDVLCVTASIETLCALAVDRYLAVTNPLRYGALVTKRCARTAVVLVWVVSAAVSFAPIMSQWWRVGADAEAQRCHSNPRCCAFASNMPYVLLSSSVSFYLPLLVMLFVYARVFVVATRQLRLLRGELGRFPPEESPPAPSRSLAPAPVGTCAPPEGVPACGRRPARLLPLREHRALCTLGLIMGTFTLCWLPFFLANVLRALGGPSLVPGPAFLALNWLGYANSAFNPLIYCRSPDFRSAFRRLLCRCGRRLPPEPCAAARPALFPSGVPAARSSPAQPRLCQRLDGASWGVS
Type: cell-based
Description: Chinese hamster ovary (CHO) cells, stably transfected with the cloned β-adrenergic receptor (β1, β2 or β3) are harvested after 3 days of subculturing. Harvesting of cells is done with Enzyme-free Dissociation Media (Specialty Media). Cells are then counted and resuspended in assay buffer (Hank's Balanced salt solution supplemented with 5 mM HEPES, 0.1% BSA) containing a phosphodiesterase inhibitor (IBMX, 0.6 mM). The reaction is initiated by mixing 6,000 cells in 6 μL with 6 μL Alexa Fluor labeled cAMP antibody (LANCE™ kit) which is then added to an assay well containing 12 μL of compound (diluted in assay buffer to 2× final concentration). The reaction proceeds for 30 min at room temperature and is terminated by the addition of 24 μL detection buffer (LANCE™ kit). The assay plate is then incubated for 1 h at room temperature and time-resolved fluorescence measured on a Perkin Elmer Envision reader or equivalent. The unknown cAMP level is determined by comparing fluorescence levels to a cAMP standard curve.
The non-selective, full agonist β-adrenergic ligand isoproterenol is used at all three receptors to determine maximal stimulation. […] Data are analyzed using Microsoft Excel and Graphpad Prism or an internally developed data analysis software package.
Work on `O=C(Nc1ccc(C[C@@H]2CC[C@H]([C@H](O)c3ccccc3)N2)cc1)C1CCc2ccccc2C1` (single isomer, unassigned) [Example 108] yielded a pEC50 of 6.00 to 7.00.
With `O=C(Nc1ccc(C[C@@H]2CC[C@H]([C@H](O)c3ccccc3)N2)cc1)C1CCc2ccccc2C1` (single isomer, unassigned) [Example 109] the pEC50 was 5.52 to 6.00.
`O=C(Nc1ccc(C[C@@H]2CC[C@H]([C@H](O)c3ccccc3)N2)cc1)C1CCc2ccccc21` (single isomer, unassigned) [Example 110] gave a pEC50 of 7.00 to 7.96.
Compound `O=C(Nc1ccc(C[C@@H]2CC[C@H]([C@H](O)c3ccccc3)N2)cc1)C1CCc2ccccc21` (single isomer, unassigned) [Example 111] has a pEC50 of 6.00 to 7.00.
`O=C(Nc1ccc(C[C@@H]2CC[C@H]([C@H](O)c3ccccc3)N2)cc1)C1CCCc2ccccc21` (single isomer, unassigned) [Example 112] showed a pEC50 of 7.00 to 7.96.
In the case of `O=C(Nc1ccc(C[C@@H]2CC[C@H]([C@H](O)c3ccccc3)N2)cc1)C1CCCc2ccccc21` (single isomer, unassigned) [Example 113], the pEC50 was 6.00 to 7.00.
Compound `Nc1nc2c(s1)CCCC2C(=O)Nc1ccc(C[C@@H]2CC[C@H]([C@H](O)c3ccccc3)N2)cc1` (single isomer, unassigned) [Example 116] has a pEC50 of 8.00 to 9.00.
For `Nc1nc2c(s1)CCCC2C(=O)Nc1ccc(C[C@@H]2CC[C@H]([C@H](O)c3ccccc3)N2)cc1` (single isomer, unassigned) [Example 117], the pEC50 was over 9.00.
Compound `Cc1nc2c(s1)CCC2C(=O)Nc1ccc(C[C@@H]2CC[C@H]([C@H](O)c3ccccc3)N2)cc1` (single isomer, unassigned) [Example 118] has a pEC50 of 8.00 to 9.00.
With `Cc1nc2c(s1)CCC2C(=O)Nc1ccc(C[C@@H]2CC[C@H]([C@H](O)c3ccccc3)N2)cc1` (single isomer, unassigned) [Example 119] the pEC50 was over 9.00.
For `Cc1nc2c(s1)CCCC2C(=O)Nc1ccc(C[C@@H]2CC[C@H]([C@H](O)c3ccccc3)N2)cc1` (single isomer, unassigned) [Example 120], the pEC50 was 7.00 to 7.96.
In the case of `Cc1nc2c(s1)CCCC2C(=O)Nc1ccc(C[C@@H]2CC[C@H]([C@H](O)c3ccccc3)N2)cc1` (single isomer, unassigned) [Example 121], the pEC50 was 8.00 to 9.00.
Compound `O=C(Nc1ccc(C[C@@H]2CC[C@H]([C@H](O)c3ccccc3)N2)cc1)C1CCc2sc(-c3ccc(F)cc3)nc21` (single isomer, unassigned) [Example 122] has a pEC50 of 6.00 to 7.00.
In the case of `O=C(Nc1ccc(C[C@@H]2CC[C@H]([C@H](O)c3ccccc3)N2)cc1)C1CCc2sc(-c3ccc(F)cc3)nc21` (single isomer, unassigned) [Example 123], the pEC50 was 6.00 to 7.00.
With `Cc1nnc2n1CCC2C(=O)Nc1ccc(C[C@@H]2CC[C@H]([C@H](O)c3ccccc3)N2)cc1` (single isomer, unassigned) [Example 124] the pEC50 was 8.00 to 9.00.
`Cc1nnc2n1CCC2C(=O)Nc1ccc(C[C@@H]2CC[C@H]([C@H](O)c3ccccc3)N2)cc1` (single isomer, unassigned) [Example 125] was tested, and the pEC50 was 8.00 to 9.00.
With `Cc1nnc2n1C(C(=O)Nc1ccc(C[C@@H]3CC[C@H]([C@H](O)c4ccccc4)N3)cc1)CC2` (single isomer, unassigned) [Example 126] the pEC50 was 7.00 to 7.96.
In the case of `Cc1nnc2n1C(C(=O)Nc1ccc(C[C@@H]3CC[C@H]([C@H](O)c4ccccc4)N3)cc1)CC2` (single isomer, unassigned) [Example 127], the pEC50 was 6.00 to 7.00.
In the case of `O=C(Nc1ccc(C[C@@H]2CC[C@H]([C@H](O)c3ccccc3)N2)cc1)C1CCc2ncnn21` (single isomer, unassigned) [Example 128], the pEC50 was 7.00 to 7.96.
With `O=C(Nc1ccc(C[C@@H]2CC[C@H]([C@H](O)c3ccccc3)N2)cc1)C1CCc2ncnn21` (single isomer, unassigned) [Example 129] the pEC50 was 7.00 to 7.96.
In the case of `O=C(Nc1ccc(C[C@@H]2CC[C@H]([C@H](O)c3ccccc3)N2)cc1)C1CCn2nnnc21` (single isomer, unassigned) [Example 130], the pEC50 was 8.00 to 9.00.
For `O=C(Nc1ccc(C[C@@H]2CC[C@H]([C@H](O)c3ccccc3)N2)cc1)C1CCn2nnnc21` (single isomer, unassigned) [Example 131], the pEC50 was 8.00 to 9.00.
For `O=C(Nc1ccc(C[C@@H]2CC[C@H]([C@H](O)c3ccccc3)N2)cc1)C1CCc2cccnc21` (single isomer, unassigned) [Example 132], the pEC50 was over 9.00.
`O=C(Nc1ccc(C[C@@H]2CC[C@H]([C@H](O)c3ccccc3)N2)cc1)C1CCc2cccnc21` (single isomer, unassigned) [Example 133] showed a pEC50 of over 9.00.
Compound `O=C(Nc1ccc(C[C@@H]2CC[C@H]([C@H](O)c3ccccc3)N2)cc1)C1CCc2ccc(=O)[nH]c21` (single isomer, unassigned) [Example 134] has a pEC50 of 6.00 to 7.00.
`O=C(Nc1ccc(C[C@@H]2CC[C@H]([C@H](O)c3ccccc3)N2)cc1)C1CCc2ccc(=O)[nH]c21` (single isomer, unassigned) [Example 135] gave a pEC50 of 6.00 to 7.00.
For `O=C(Nc1ccc(C[C@@H]2CC[C@H]([C@H](O)c3ccccc3)N2)cc1)C1CCc2cn[nH]c21` (single isomer, unassigned) [Example 136], the pEC50 was 7.00 to 7.96.
Work on `O=C(Nc1ccc(C[C@@H]2CC[C@H]([C@H](O)c3ccccc3)N2)cc1)C1CCc2cn[nH]c21` (single isomer, unassigned) [Example 137] yielded a pEC50 of 7.00 to 7.96.
`Cc1n[nH]c2c1CCC2C(=O)Nc1ccc(C[C@@H]2CC[C@H]([C@H](O)c3ccccc3)N2)cc1` (single isomer, unassigned) [Example 138] gave a pEC50 of 7.00 to 7.96.
Work on `Cc1n[nH]c2c1CCC2C(=O)Nc1ccc(C[C@@H]2CC[C@H]([C@H](O)c3ccccc3)N2)cc1` (single isomer, unassigned) [Example 139] yielded a pEC50 of 8.00 to 9.00.
In the case of `Cc1noc2c1CCC2C(=O)Nc1ccc(C[C@@H]2CC[C@H]([C@H](O)c3ccccc3)N2)cc1` (single isomer, unassigned) [Example 140], the pEC50 was 7.00 to 7.96.
`Cc1noc2c1CCC2C(=O)Nc1ccc(C[C@@H]2CC[C@H]([C@H](O)c3ccccc3)N2)cc1` (single isomer, unassigned) [Example 141] gave a pEC50 of 8.00 to 9.00.
For `O=C(O)c1nc2c(s1)CCC2C(=O)Nc1ccc(C[C@@H]2CC[C@H]([C@H](O)c3ccccc3)N2)cc1` (single isomer, unassigned) [Example 142], the pEC50 was 6.00 to 7.00.
`O=C(O)c1nc2c(s1)CCC2C(=O)Nc1ccc(C[C@@H]2CC[C@H]([C@H](O)c3ccccc3)N2)cc1` (single isomer, unassigned) [Example 143] showed a pEC50 of 7.00 to 7.96.
`O=C(Nc1ccc(C[C@@H]2CC[C@H]([C@H](O)c3ccccc3)N2)cc1)C1CCc2sc(Br)nc21` (single isomer, unassigned) [Example 144] showed a pEC50 of 8.00 to 9.00.
For `O=C(Nc1ccc(C[C@@H]2CC[C@H]([C@H](O)c3ccccc3)N2)cc1)C1CCc2sc(Br)nc21` (single isomer, unassigned) [Example 145], the pEC50 was over 9.00.
With `O=C(Nc1ccc(C[C@@H]2CC[C@H]([C@H](O)c3ccccc3)N2)cc1)C1CCc2sc(F)nc21` (single isomer, unassigned) [Example 146] the pEC50 was over 9.00.
`O=C(Nc1ccc(C[C@@H]2CC[C@H]([C@H](O)c3ccccc3)N2)cc1)C1CCc2sc(F)nc21` (single isomer, unassigned) [Example 147] showed a pEC50 of over 9.00.
With `Cc1nnc2n1CCCC2C(=O)Nc1ccc(C[C@@H]2CC[C@H]([C@H](O)c3ccccc3)N2)cc1` (single isomer, unassigned) [Example 150] the pEC50 was 8.00 to 9.00.
In the case of `Cc1nnc2n1CCCC2C(=O)Nc1ccc(C[C@@H]2CC[C@H]([C@H](O)c3ccccc3)N2)cc1` (single isomer, unassigned) [Example 151], the pEC50 was 8.00 to 9.00.
Work on `O=C(Nc1ccc(C[C@@H]2CC[C@H]([C@H](O)c3ccccc3)N2)cc1)C1CCCn2nnnc21` (single isomer, unassigned) [Example 152] yielded a pEC50 of 7.00 to 7.96.
With `O=C(Nc1ccc(C[C@@H]2CC[C@H]([C@H](O)c3ccccc3)N2)cc1)C1CCCn2nnnc21` (single isomer, unassigned) [Example 153] the pEC50 was 7.00 to 7.96.
`O=C(Nc1ccc(C[C@@H]2CC[C@H]([C@H](O)c3ccccc3)N2)cc1)C1CCCn2ccnc21` (single isomer, unassigned) [Example 154] showed a pEC50 of 5.52 to 6.00.
Compound `O=C(Nc1ccc(C[C@@H]2CC[C@H]([C@H](O)c3ccccc3)N2)cc1)C1CCCn2ccnc21` (single isomer, unassigned) [Example 155] has a pEC50 of 6.00 to 7.00.
`O=C(Nc1ccc(C[C@@H]2CC[C@H]([C@H](O)c3ccccc3)N2)cc1)C1CCCc2ccnn21` (single isomer, unassigned) [Example 156] was tested, and the pEC50 was 8.00 to 9.00.
In the case of `O=C(Nc1ccc(C[C@@H]2CC[C@H]([C@H](O)c3ccccc3)N2)cc1)C1CCCc2ccnn21` (single isomer, unassigned) [Example 157], the pEC50 was 7.00 to 7.96.
With `CC(C(=O)Nc1ccc(C[C@@H]2CC[C@H]([C@H](O)c3ccccc3)N2)cc1)n1cccnc1=O` (single isomer, unassigned) [Example 160] the pEC50 was 8.00 to 9.00.
Work on `CC(C(=O)Nc1ccc(C[C@@H]2CC[C@H]([C@H](O)c3ccccc3)N2)cc1)n1cccnc1=O` (single isomer, unassigned) [Example 161] yielded a pEC50 of over 9.00.
`CC(C(=O)Nc1ccc(C[C@@H]2CC[C@H]([C@H](O)c3ccccc3)N2)cc1)n1ncccc1=O` (single isomer, unassigned) [Example 162] showed a pEC50 of 8.00 to 9.00.

Same assay, conditions: given as a range; cAMP, CHO cells; read-out: human β3 functional activity
With `Nc1nc2c(s1)CCC2C(=O)Nc1ccc(C[C@@H]2CC[C@H]([C@H](O)c3ccccc3)N2)cc1` (single isomer, unassigned) [Example 4] the pEC50 was over 9.00.
